Measured values: patent US20070122395A1, “Genetic and pharmacological regulation of antidepressant-sensitive biogenic amine transporters through PKG/p38 map kinase” (Vanderbilt University, priority 2005, published 2007)
“And” between values parts separate entries of the source, which are not always exact repeats. Identical values can stand only once. Like-named read-outs stand apart in the source and are kept apart here.

Assays:
hSERT Pro339Leu (P339L) = hSERT Pro339Leu (P339L) (Homo sapiens, UniProt P31645, P339L)
Description: (§1) Transfection and Transport Studies. HeLa cells, maintained at 37° C. in a 5% CO2 humidified incubator, were grown in complete medium (Dulbecco's Modified Eagle's Medium (DMEM, Invitrogen), 10% fetal bovine serum, 2 mM L-glutamine, 100 units/ml penicillin, and 100 μg/ml streptomycin).
(§2) Transport, Binding, Biotinylation and Phosphorylation Studies. […] To establish levels and biosynthetic progression of hSERT protein produced from mutant cDNAs, HeLa cells were plated in 6-well dishes at 500,000 cells per well and transfected 12 h later. Twenty four hours after transfection, whole cell detergent extracts were blotted for hSERT (mAb Technologies, Inc., 1:1000) using enhanced chemiluminescence (ECL, Amersham) detection.

hSERT [1] = molecular target: T1, hSERT (Homo sapiens, UniProt P31645); assay: [3H]5-HT transport (SERT uptake) assay in transfected HeLa cells; format: cell-based
T1 construct: The full-length cDNA encoding hSERT in the mammalian expression vector pcDNA3.1; expressed in transfected cells; host or cells: HeLa
Description: as §1, §2

hSERT Ile425Val (I425V) = molecular target: T2, hSERT Ile425Val (I425V) (Homo sapiens, UniProt P31645, I425V); assay: as above; format: cell-based
T2 construct: The full-length cDNA encoding hSERT in the mammalian expression vector pcDNA3.1; expressed in transfected cells; host or cells: HeLa
Description: as §1, §2

[2] = tested on: rat SERT expressed by RBL-2H3 cells; assay: [3H]5-HT transport assay in RBL-2H3 cells; format: cell-based; conditions: for blockade of NECA-induced 5-HT uptake: ODQ 10 μm, NECA 1 μm; for blockade of 8-Br-cGMP stimulation of SERT: data not shown
[3] = molecular target: T3, native SERT in RN46A cells (Rattus norvegicus, UniProt P31652); assay: [3H]5-HT transport assay in RN46A cells; format: cell-based; conditions: for blockade of anisomycin-stimulated 5-HT uptake: SB203580, ODQ 10 μm, H8 0.1 μm
T3 construct: derived from rat E13 raphenucleus, that expresses native SERT; endogenous in cells; host or cells: RN46A cells

NCCc1c[nH]c2ccc(O)cc12 = tested on: T4, NCCc1c[nH]c2ccc(O)cc12; assay: cells, lysate or membranes; format: cell-based, human; conditions: other: saturation kinetics of 5-HT transport, hSERT; pH 7.4; 37.0 °C
T4 construct: The full-length cDNA encoding hSERT in the mammalian expression vector pcDNA3.1; expressed in transfected cells; host or cells: HeLa

hSERT variants = assay: 5-HT transport regulation by phorbol ester in transfected HeLa cells, all variants; format: cell-based, human; conditions: each hSERT variant; slightly greater for Thr4Ala, Lys605Asn, Pro621Ser
Description: as §1, §2

p38 MAPK = format: cell-based, rat
Description: Assays of p38 MAPK Activation. […] Medium was removed by aspiration, and cells were washed once with KRH buffer and then incubated in triplicate at 37° C. in KRH buffer with or without p38 MAPK activators for 5-10 min. Assay buffer was removed, and cells were immediately fixed with fresh 4% formaldehyde (Sigma) in PBS for 20 min at room temperature and washed four times with 1×PBS containing 0.1% Triton X-100 (Sigma) (5 min per wash) prior to 1 h of blocking with Odyssey blocking buffer (Li-Cor Biosciences, Lincoln, Nebr.). RBL-2H3 cells were subsequently probed with dual phosphorylated (Thr(P) and Tyr(P)) p38 MAPK polyclonal antibody (Cell Signaling; 1:400) in Odyssey blocking buffer with gentle mixing for 2 h at room temperature. Cells were then washed four times with 1×PBS containing 0.1% Tween 20 (Sigma) for 5 min. Bound antibody was detected with fluorescence-labeled secondary antibody-Alexa Fluor® 680 (avoiding exposure to light; 1:200 in Odyssey Blocking Buffer, Molecular Probes, Inc., Eugene, Oreg.) for 1 h. After four washes with 1×PBS, 0.1% Tween 20, the plate was scanned, and the captured image of the signal was processed and quantified with the Odyssey™ Infrared Imaging System (Li-Cor Biosciences). For UV radiation to activate p38 MAPK, plates seeded with cells were placed in a UV source (UV Stratalinker 1800, Stratagene, La Jolla, Calif.) that was preset to deliver 4×10^4 μJ/cm^2 at room temperature.

SERT in RBL-2H3 cells = molecular target: T5, SERT in RBL-2H3 cells (Rattus norvegicus, UniProt P31652); assay: [125I]RTI-55 binding to intact RBL-2H3 cells; format: cell-based; conditions: for SERT surface density (5-HT-displaceable [125I]RTI-55 binding): anisomycin 1 μm, fostriecin 5 nM, NECA 1 μm, 10 min
T5 construct: As with rat SERT expressed by RBL-2H3 cells; host or cells: RBL-2H3 cells (intact cells, 4° C.)
From the text: Binding was terminated by two rapid washes with ice-cold PBS/CM.

hSERT [4] = molecular target: T1, hSERT; assay: [125I]RTI-55 binding to intact transfected HeLa cells (surface and total SERT); format: cell-based; conditions: paroxetine as displacer; data not shown
[5] = tested on: five hSERT variants that failed to elicit uptake increases; assay: [125I]RTI-55 surface binding to intact transfected HeLa cells, non-responsive variants; format: cell-based, human; conditions: H8
[6] = tested on: lymphocytes homozygous for the Gly variant (hSERT Gly56); assay: 5-HT uptake in genotyped lymphocyte lines; format: cell-based, human; conditions: H8 versus 8BrcGMP; SB203580 versus anisomycin
From the text: Genotyping and Lymphocyte Studies. Lymphocyte lines were derived from autistic pedigrees recruited by Susan E. Folstein (Johns Hopkins Univ), from the Autism Genetics Resource Exchange (AGRE) collection (www.agre.org/), and from the NIMH Human Genetics Initiative Repository (www.nimhgenetics.org/) at Rutgers University. DNA from lymphoblastoid cell lines was genotyped via TaqMan-based allelic discrimination, using an Applied Biosystems (Foster City, Calif.) Assay-by-Design and independently confirmed by PCR and direct sequence analysis. […] Lymphocyte were pelleted at 1500 rpm, 5 min and washed with KRH assay buffer. A total of 1×10^6 cells in triplicate were pre-warmed (37° C.) in a shaking water bath (10 min) in 12×75 polypropylene tubes in KRH buffer containing 100 μM pargyline and 100 μM ascorbic acid+/−modifiers.

human NET = assay: monoamine uptake assay in transfected CHO cells; format: cell-based; conditions: SB203580 preincubation 15 min
Description: Cell Culture and Transfection. […] CHO cells (ATCC, Manassas, Va.) were maintained at 37° C. in Dulbecco's MEM containing 10% fetal bovine serum, 1% L-Glu, 100 IU/ml penicillin, and 100 μg/ml streptomycin. For comparison of the response of monoamine transporters to p38 MAPK activation, CHO cells were transfected with cDNAs for hSERT, hDAT, or hNET (100 ng/well for a 24-well plate). Transfections of CHO cells were performed using TransIT-LT1 Transfection Reagent (Mirus, Madison, Wis.) according to the manufacturer's protocol (0.3 μl/well). hSERT, hDAT, or hNET cDNAs were preincubated with the reagent at ambient temperature for 30 min before being added to plated CHO cells. Cells were cultured for 24 h after transfection. The transfection mixture was removed just prior to assay.
CHO cells were plated at 20,000 cells/well 16-24 h before transfection, and the uptake assay was performed 24 h following the transfection. […] Medium was removed by aspiration, and cells were washed once with Krebs-Ringer HEPES (KRH) buffer containing 130 mM NaCl, 1.3 mM KCl, 2.2 mM CaCl2, 1.2 mM MgSO4, 1.2 mM KH2PO4, 1.8 g/liter glucose, 10 mM HEPES, pH 7.4. […] Cells were solubilized with 0.5 ml of Microscint 20 (PerkinElmer Life Sciences), and tritium-labeled monoamine accumulation was quantitated using a TopCount plate scintillation counter (PerkinElmer Life Sciences).

[7] = tested on: rat SERT expressed by RBL-2H3 cells; conditions: Zhu et al., 2004a,b; cited from earlier work
[8] = pretreatment, then anisomycin 1 μm 10 min, SB compounds, curcumin, PD98059, ODQ 10 μm, H8 0.1 μm, DT-2 1.0 μm, fostriecin 5 nM, MTSET 10 mM, siRNA 100 nM 48 h

T3 sequence (P31652 whole entry): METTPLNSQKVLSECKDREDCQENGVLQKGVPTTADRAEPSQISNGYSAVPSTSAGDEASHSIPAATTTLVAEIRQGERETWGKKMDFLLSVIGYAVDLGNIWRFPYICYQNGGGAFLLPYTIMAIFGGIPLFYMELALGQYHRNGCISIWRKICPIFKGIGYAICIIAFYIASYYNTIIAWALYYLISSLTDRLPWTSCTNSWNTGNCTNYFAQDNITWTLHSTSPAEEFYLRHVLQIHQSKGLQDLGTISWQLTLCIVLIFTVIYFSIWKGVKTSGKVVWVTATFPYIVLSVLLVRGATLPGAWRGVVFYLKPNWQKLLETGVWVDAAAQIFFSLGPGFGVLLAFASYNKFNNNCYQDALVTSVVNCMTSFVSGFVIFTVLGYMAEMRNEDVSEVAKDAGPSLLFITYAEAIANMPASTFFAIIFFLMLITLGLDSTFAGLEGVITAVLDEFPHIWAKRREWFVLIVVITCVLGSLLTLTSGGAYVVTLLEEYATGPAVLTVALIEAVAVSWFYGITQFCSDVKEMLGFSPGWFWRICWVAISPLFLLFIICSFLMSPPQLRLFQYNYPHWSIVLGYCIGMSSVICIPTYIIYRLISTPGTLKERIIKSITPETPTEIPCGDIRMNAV
T5 sequence (P31652 whole entry): as above

NCCc1c[nH]c2ccc(O)cc12 [5-HT, 5-hydroxytryptamine]
5-HT Vmax (hSERT Pro339Leu (P339L)): 3.0+/−1.2 % of hSERT
5-HT Vmax (hSERT Pro339Leu (P339L); saturation kinetics): 1.2 ± 0.11 fmol/well/min
5-HT Vmax (hSERT [1]; saturation kinetics, hSERT): 416.2+19 fmol/well/min
5-HT Vmax (hSERT Ile425Val (I425V)): 190+/−28 % of hSERT
5-HT Vmax (hSERT Ile425Val (I425V); saturation kinetics): 789.5+28 fmol/well/min
Km ([2]; read-out: SERT Km for 5-HT, RBL-2H3, vehicle): 1.06 ± 0.145 µM
Km ([3]; read-out: SERT Km for 5-HT, RN46A, vehicle): 0.799 ± 0.097 µM

hSERT (Homo sapiens)
Km (NCCc1c[nH]c2ccc(O)cc12): 1.00+/−0.47 μM and 1.00+0.17 μM

CCCCCCCCCCCCCC(=O)O[C@@H]1[C@@H](C)[C@@]2(O)[C@@H](C=C(CO)C[C@]3(O)C(=O)C(C)=C[C@@H]23)[C@@H]2C(C)(C)[C@]12OC(C)=O [β-PMA]
downregulation of 5-HT transport activity (hSERT [1]): ~40%
downregulation of 5-HT transport following β-PMA, relative to hSERT (hSERT variants): equal to or slightly greater

CCNC(=O)[C@H]1O[C@@H](n2cnc3c(N)ncnc32)[C@H](O)[C@@H]1O [NECA]
level of p38 MAPK phosphorylation stimulation (p38 MAPK; 5 min treatment): comparable to stimulation achieved with 8-bromo-cGMP
total p38 MAPK levels (p38 MAPK; data not shown): No changes
total SERT (paroxetine-displaceable [125I]RTI-55 binding) (SERT in RBL-2H3 cells; acute treatment): does not change
SERT surface density (5-HT-displaceable [125I]RTI-55 binding) (SERT in RBL-2H3 cells): significant increase

C[N+](C)(C)CCSS(C)(=O)=O [MTSET, [2-(Trimethylammonium)ethyl]methanethiosulfonate]
blockade of anisomycin-stimulated 5-HT uptake / SERT activity [2]: abolished

CNCCNS(=O)(=O)c1cccc2cnccc12 [H8, N-[2-(methylamino)ethy]-5-isoquinoline sulfonamide]
antagonism of 8BrcGMP stimulation of 5-HT transport (hSERT [1]): completely antagonized
total [125I]RTI-55 binding (hSERT [4]): no effects on total binding
blockade of 8BrcGMP-induced reduction in surface density [5]: completely blocked
antagonist sensitivity of stimulated 5-HT transport [6]: sensitive to H8
blockade of NECA-induced 5-HT uptake ([2]; H8 0.1 μm, DT-2 1.0 μm): abolish
blockade of 8-Br-cGMP stimulation of SERT [2]: blocked
blockade of anisomycin-stimulated 5-HT uptake / SERT activity [2, 8]: failed to attenuate
blockade of anisomycin-stimulated 5-HT uptake ([3]; RN46A, DT-2 1.0 μm): failed to attenuate

YGRKKRRQRRRPP-LRK5H-amide [DT-2]
blockade of NECA-induced 5-HT uptake ([2]; H8 0.1 μm, DT-2 1.0 μm): abolish
blockade of 8-Br-cGMP stimulation of SERT [2]: blocked
blockade of anisomycin-stimulated 5-HT uptake / SERT activity [2, 8]: failed to attenuate
sensitivity of 8-bromo-cGMP-induced 5-HT transport to PKG antagonist ([3]; DT-2 1.0 μm): sensitive
blockade of anisomycin-stimulated 5-HT uptake ([3]; RN46A, DT-2 1.0 μm): failed to attenuate

OO [H2O2, hydrogen peroxide]
stimulation of 5-HT transport activity [2]: stimulated 5-HT transport to a level comparable with 1 μm anisomycin

C[S+]([O-])c1ccc(-c2nc(-c3ccc(F)cc3)c(-c3ccncc3)[nH]2)cc1 (stereo not shown) [SB203580]
blockade of anisomycin stimulation of NET (human NET): blocking stimulation back to basal levels

O=c1onc2cnc3ccccc3n12 [ODQ, 1H-(1,2,4)-oxadiazolo[4,3-a]quinoxalin-1-one]
blockade of anisomycin-stimulated 5-HT uptake / SERT activity [2]: neither agent attenuated anisomycin stimulation
blockade of NECA-induced 5-HT uptake ([2]; H8 0.1 μm, DT-2 1.0 μm): abolish
blockade of anisomycin-stimulated 5-HT uptake ([3]; RN46A, DT-2 1.0 μm): neither agent attenuated anisomycin stimulation
blockade of AR stimulation of SERT [7]: completely abolished

C[C@@](O)(/C=C/[C@H]1CC=CC(=O)O1)[C@@H](C[C@@H](O)\C=C/C=C\C=C\CO)OP(=O)(O)O [fostriecin]
5-HT uptake at higher concentrations [2]: inhibit basal 5-HT uptake
blockade of anisomycin-stimulated 5-HT uptake / SERT activity [2]: completely blocks
SERT surface density (5-HT-displaceable [125I]RTI-55 binding) (SERT in RBL-2H3 cells): did not impact the binding
blockade of NECA-induced enhancement of SERT surface density (SERT in RBL-2H3 cells; concentration that completely blocks anisomycin stimulation): fails to block

COc1cccc(-c2cc(=O)c3ccccc3o2)c1N [PD98059]
blockade of anisomycin-stimulated 5-HT uptake / SERT activity [2]: failed to block

O=C1C(Nc2ccccc2)=CC(=O)c2ncccc21 [LY83583]
blockade of anisomycin-stimulated 5-HT uptake / SERT activity [2, 8]: neither agent attenuated anisomycin stimulation
blockade of anisomycin-stimulated 5-HT uptake ([3]; RN46A, DT-2 1.0 μm): neither agent attenuated anisomycin stimulation
blockade of AR stimulation of SERT [7]: completely abolished

Oc1ccc(-c2nc(-c3ccc(F)cc3)c(-c3ccncc3)[nH]2)cc1 [SB202190]
blockade of anisomycin-stimulated 5-HT uptake / SERT activity [2]: blocked anisomycin stimulation of SERT

bisindolylmaleimide [BIM]
blockade of β-PMA downregulation (hSERT [1]; BIM 1 μM): blocked

COC[C@@H]([C@H](O)[C@H](O)C(=O)NCC[C@H](C)c1nc(/C=C/C[C@@H]2O[C@]3(C[C@@H](O)[C@@H]2C)O[C@H]([C@H](C[C@H](O)[C@H](C)[C@H](O)[C@H](C)/C=C(C)/C(C)=C/C=C/C(C)=C\C#N)OC)[C@H](OP(=O)(O)O)C3(C)C)co1)N(C)C [calyculin A]
basal 5-HT uptake ([2]; calyculin A 20 nM): fails to diminish
blockade of anisomycin stimulation of SERT ([2]; calyculin A 20 nM, 15 min preincubation): completely blocks
5-HT uptake at higher concentrations ([2]; calyculin A 100 nM, fostriecin higher concentrations): inhibits both basal and anisomycin-stimulated 5-HT uptake

COc1cc(/C=C/C(=O)CC(=O)/C=C/c2ccc(O)c(OC)c2)ccc1O [curcumin]
blockade of anisomycin-stimulated 5-HT uptake / SERT activity [2]: lacked antagonistic activity

CCc1nc(-c2ccc(OC)cc2)[nH]c1-c1ccncc1 [SB202474]
blockade of anisomycin-stimulated 5-HT uptake / SERT activity [2]: lacked antagonistic activity
